Here are results for 13 molecules from ChEMBL document CHEMBL1133792, “Synthesis, absolute configuration and antimuscarinic activity of the enantiomers of [1-(2,2-diphenyl-[1,3]dioxolan-4-yl)-ethyl]-dimethyl-amine” (Bioorg Med Chem Lett, 2001).

For experiment [1], the target named is Muscarinic acetylcholine receptor M3 (Cavia porcellus) (UniProt Q8VH26). The experiment in a line: Affinity for Muscarinic acetylcholine receptor M3 of guinea pig ileum. It counts as tissue-based.
Experiment [2] concerns the target T1, Muscarinic acetylcholine receptor M2 (Homo sapiens) (UniProt P08172).
T1 sequence (whole entry): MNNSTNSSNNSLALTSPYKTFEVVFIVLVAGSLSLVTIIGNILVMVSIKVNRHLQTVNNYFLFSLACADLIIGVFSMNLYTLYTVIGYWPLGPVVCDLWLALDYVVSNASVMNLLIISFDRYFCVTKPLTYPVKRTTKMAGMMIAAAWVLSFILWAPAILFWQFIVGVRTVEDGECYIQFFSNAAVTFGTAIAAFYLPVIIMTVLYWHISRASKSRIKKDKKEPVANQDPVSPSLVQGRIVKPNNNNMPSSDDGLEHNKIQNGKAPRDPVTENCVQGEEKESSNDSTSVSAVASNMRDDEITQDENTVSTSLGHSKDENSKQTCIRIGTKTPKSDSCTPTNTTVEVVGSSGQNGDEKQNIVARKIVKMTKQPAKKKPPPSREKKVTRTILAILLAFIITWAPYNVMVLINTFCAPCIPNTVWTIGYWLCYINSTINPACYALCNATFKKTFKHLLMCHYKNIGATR
The experiment can be described thus: Affinity for Muscarinic acetylcholine receptor M2 of guinea pig heart. Conditions: Cavia porcellus; target entry is the homologue from another species.

The target of experiment [3] is T2, Muscarinic acetylcholine receptor M1 (Homo sapiens) (UniProt P11229).
T2 sequence (whole entry): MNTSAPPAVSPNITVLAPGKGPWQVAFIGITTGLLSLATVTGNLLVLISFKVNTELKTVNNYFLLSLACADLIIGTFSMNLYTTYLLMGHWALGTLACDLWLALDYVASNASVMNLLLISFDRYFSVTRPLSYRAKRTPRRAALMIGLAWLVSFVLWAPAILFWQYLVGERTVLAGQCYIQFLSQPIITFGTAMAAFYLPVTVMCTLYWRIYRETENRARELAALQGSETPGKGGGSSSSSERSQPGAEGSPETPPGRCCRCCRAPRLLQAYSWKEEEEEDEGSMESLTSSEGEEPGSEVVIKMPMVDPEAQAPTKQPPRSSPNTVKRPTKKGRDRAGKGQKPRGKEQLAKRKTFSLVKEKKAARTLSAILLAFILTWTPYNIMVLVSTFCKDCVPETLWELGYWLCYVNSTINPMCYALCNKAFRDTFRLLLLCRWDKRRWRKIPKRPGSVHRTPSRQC
The experiment can be described thus: Affinity for Muscarinic acetylcholine receptor M1 of rabbit vas deferens. Conditions: Oryctolagus cuniculus; target entry is the homologue from another species.

The term pKb denotes −log10 of the Kb, conventionally taken in molar units.

Sequence of Muscarinic acetylcholine receptor M3 (Cavia porcellus) (Q8VH26 1-587): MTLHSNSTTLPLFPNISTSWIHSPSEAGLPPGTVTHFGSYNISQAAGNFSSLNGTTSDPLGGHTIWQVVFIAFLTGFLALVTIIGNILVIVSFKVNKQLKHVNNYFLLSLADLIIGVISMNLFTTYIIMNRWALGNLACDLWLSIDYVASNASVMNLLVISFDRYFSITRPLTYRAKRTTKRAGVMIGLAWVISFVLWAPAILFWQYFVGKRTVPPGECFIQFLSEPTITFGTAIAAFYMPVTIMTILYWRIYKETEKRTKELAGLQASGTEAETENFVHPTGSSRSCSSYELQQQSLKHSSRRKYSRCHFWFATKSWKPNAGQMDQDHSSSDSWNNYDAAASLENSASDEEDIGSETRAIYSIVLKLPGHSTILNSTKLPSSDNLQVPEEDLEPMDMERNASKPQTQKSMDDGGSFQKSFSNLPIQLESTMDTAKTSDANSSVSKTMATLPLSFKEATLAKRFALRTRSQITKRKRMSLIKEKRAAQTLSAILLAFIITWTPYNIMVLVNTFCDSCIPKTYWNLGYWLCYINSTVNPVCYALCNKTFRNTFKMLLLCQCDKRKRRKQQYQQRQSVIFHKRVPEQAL

With `CC(C1COC(c2ccccc2)(c2ccccc2)O1)N(C)C` (racemic; form 2), the pKb in experiment [1] came to 7.94; in experiment [2], 8.03; in experiment [3] it was 8.11.
Consider `CN(C)CC1COC(c2ccccc2)(c2ccccc2)O1` (centres undefined), for which the pKb in experiment [1] came to 6.72; in experiment [2], 7.11; in experiment [3] it was 7.15.
For the molecule `C[C@H](C1COC(c2ccccc2)(c2ccccc2)O1)N(C)C` (some centres undefined), the pKb in experiment [1] came to 6.41; in experiment [2], 6.41; in experiment [3], 6.52.
For the molecule `CC(C1COC(c2ccccc2)(c2ccccc2)O1)[N+](C)(C)C` (racemic; form 2), the pKb is 7.92 in experiment [1], 8.07 in experiment [2] and 7.82 in experiment [3].
As to `C[C@H]([C@@H]1COC(c2ccccc2)(c2ccccc2)O1)N(C)C`, the pKb came out at 7.45 in experiment [1], 7.47 in experiment [2] and 6.83 in experiment [3].
On to `C[C@@H]([C@H]1COC(c2ccccc2)(c2ccccc2)O1)[N+](C)(C)C`, for which the pKb in experiment [1] amounted to 7.85; in experiment [2], 7.82; in experiment [3], 7.47.
On the same counts, the results for `CC(C1COC(c2ccccc2)(c2ccccc2)O1)N(C)C` (racemic; form 1) are 6.96, 7.2 and 6.95.
For `C[C@H]([C@@H]1COC(c2ccccc2)(c2ccccc2)O1)[N+](C)(C)C`, in that order: 8.4, 8.38 and 8.23.
For `C[C@@H](C1COC(c2ccccc2)(c2ccccc2)O1)N(C)C` (some centres undefined), the pKb in experiment [1] is 7.19; in experiment [2], 7.35; in experiment [3], 6.94.
For `C[C@H](C1COC(c2ccccc2)(c2ccccc2)O1)[N+](C)(C)C` (some centres undefined), in that order: 7.51, 7.53 and 8.24.
Take `C[C@@H]([C@H]1COC(c2ccccc2)(c2ccccc2)O1)N(C)C`: the pKb in experiment [1] was 8.92; in experiment [2], 8.39; in experiment [3] it was 8.46.
On the same counts, the results for `CC(C1COC(c2ccccc2)(c2ccccc2)O1)[N+](C)(C)C` (racemic; form 1) are 8.3, 8.22 and 8.01.
For `C[C@@H](C1COC(c2ccccc2)(c2ccccc2)O1)[N+](C)(C)C` (some centres undefined), in that order: 8, 8.21 and 7.12.
